The term melting point denotes the temperature, or range, at which the solid turns liquid.

`O=C(Nc1ccc2c(c1)CCC(CN1CCCC1)=C2)c1ccc(-c2ccc(F)cc2F)cc1` [Example 103, 2′,4′-Difluoro-N-[6-(1-pyrrolidinylmethyl)-7,8-dihydro-2-naphthalenyl][1,1′-biphenyl]-4-carboxamide] gave a melting point of 165 to 167 °C.
Under `CN(C)CC1=Cc2ccc(NC(=O)c3ccc(-c4ccccc4)cc3)cc2CC1` [Example 47, N-[6-[(Dimethylamino)methyl]-7,8-dihydro-2-naphthalenyl][1,1′-biphenyl]-4-carboxamide] stands 173 to 175 °C.
In the case of `Cl.O=C(Nc1ccc(C(O)C2CCCNC2)cc1)c1ccc(-c2ccc(Cl)cc2)cc1` (stereo not shown), the melting point is 195 °C (dec.).
The compound `CN(C)CC1CCc2cc(NC(=O)c3ccc(-c4ccc(CO)cc4)cc3)ccc2C1` (stereo not shown) [Example 21, N-[6-[(N,N-Dimethylamino)methyl]-5,6,7,8-tetrahydro-2-naphthalenyl]-4′-(hydroxymethyl)[1,1′-biphenyl]-4-carboxamide] returned a melting point of 138 to 139 °C.
For `CN(C)CC1CCCc2cc(NC(=O)c3ccc(-c4ccc(F)cc4)cc3)ccc2C1` (stereo not shown) [Example 45, 4′-Fluoro-N-[6-[(dimethylamino)methyl]-6,7,8,9-tetrahydro-5H-benzo[a]cyclohepten-2-yl][1,1′-biphenyl]-4-carboxamide], the melting point is 167 to 169 °C.
With `CN(C)CCC1=Cc2ccc(NC(=O)c3ccc(-c4ccccc4)cc3)cc2CC1` [Example 208, N-[6-[2-(Dimethylamino)ethyl]-7,8-dihydro-2-naphthalenyl][1,1′-biphenyl]-4-carboxamide], the melting point was in the range of 148 to 150 °C.
In the case of `CN(C)CCNC(=O)Cc1ccc(NC(=O)CCCc2c[nH]c3ccccc23)cc1` [Example 189, N-[4-[2-[[2-(Dimethylamino)ethyl]amino]-2-oxoethyl]phenyl]-4-(1H-indol-3-yl)butanamide] it was 132 to 133 °C.
In turn, `COc1ccc(-c2ccc(C(=O)Nc3ccc4c(c3)OCC(CN3CCCC3)=C4)cn2)cc1` [Example 141, 6-(4-Methoxyphenyl)-N-[3-(1-pyrrolidinylmethyl)-2H-chromen-7-yl]nicotinamide] returned a melting point of 243 to 245 °C.
Regarding `CCc1ccc(-c2ccc(C(=O)Nc3ccc4c(c3)CCC(CN(C)C)C4)cc2)cc1` (stereo not shown) [Example 11, (4′-Ethylbiphenyl-4-yl)-N-[2-(N,N-dimethylamino)methyl-6-tetralinyl]carboxamide], the melting point was in the range of 137 to 138 °C.
Compound `O=C(Nc1ccc2c(c1)CCC(CN1CCCC1)=C2)c1ccc(-c2ccc(F)cc2)cc1` [Example 95, 4′-Fluoro-N-[6-(1-pyrrolidinylmethyl)-7,8-dihydro-2-naphthalenyl][1,1′-biphenyl]-4-carboxamide] gave a melting point of 189 to 192 °C.
As to `CN(C)CC1=Cc2ccc(C(=O)Nc3ccc(Br)cc3)cc2CC1` [Example 101, N-(4-Bromophenyl)-6-[(dimethylamino)methyl]-7,8-dihydro-2-naphthalenecarboxamide], the melting point was 175 to 179 °C.
In the case of `CN(C)CC1=Cc2ccc(NC(=O)c3ccc(-c4ccc(Cl)cc4)cc3)cc2CC1` [Example 41, 4′-Chloro-N-[6-[(N,N-dimethyl)methyl]-7,8-dihydro-2-naphthalenyl][1,1′-biphenyl]-4-carboxamide] it was 204 to 207 °C.
For `Cl.O=C(Nc1ccc(CC2CCCNC2)cc1)c1ccc(-c2ccc(Cl)cc2)cc1` (stereo not shown), the melting point is 200 °C (dec.).
As to `O=C(Nc1ccc2c(c1)CCC(CCN1CCCC1)=C2)c1ccc(-c2ccccc2)cc1` [Example 204, N-[6-[2-(1-Pyrrolidinyl)ethyl]-7,8-dihydro-2-naphthalenyl][1,1′-biphenyl]-4-carboxamide], the melting point lay within 184 to 186 °C.
The compound `COc1ccc2[nH]c(C)c(CC(=O)Nc3ccc(CC(=O)NCCN(C)C)cc3)c2c1` [Example 188, N-[4-[2-[[2-(Dimethylamino)ethyl]amino]-2-oxoethyl]phenyl]-2-(5-methoxy-2-methyl-1H-indol-3-yl)acetamide] registered a melting point of 125 to 126 °C.
As to `CCCc1ccc(-c2ccc(C(=O)Nc3ccc4c(c3)CCC(CN(C)C)C4)cc2)cc1` (stereo not shown) [Example 22, N-[6-[(N,N-Dimethylamino)methyl]-5,6,7,8-tetrahydro-2-naphthalenyl]-4′-propyl[1,1′-biphenyl]-4-carboxamide], the melting point fell in the range of 186 to 188 °C.
Take `CN(C)CC1CCc2cc(NC(=O)c3ccc(C(=O)c4ccccc4)cc3)ccc2C1` (stereo not shown) [Example 2, 4-Benzoyl-N-[2-(N,N-dimethylamino)methyl-6-tetralinyl]benzamide]: the melting point was 193 to 196 °C.
As for `CN(C)CC1CCc2cc(NC(=O)c3ccc(-c4ccc(C(F)(F)F)cc4)cc3)ccc2C1` (stereo not shown) [Example 29, N-[6-[(N,N-Dimethylamino)methyl]-5,6,7,8-tetrahydro-2-naphthalenyl]-4′-(trifluoromethyl)[1,1-biphenyl]-4-carboxamide], the melting point is 205 to 206 °C.
In the case of `O=C(Nc1ccc2c(c1)CCC(CN1CCCCC1)C2)C1CC(=O)N(c2ccccc2)C1` (stereo not shown) [Example 56, 5-Oxo-1-phenyl-N-[6-(1-piperidinylmethyl)-5,6,7,8-tetrahydro-2-naphthalenyl]-3-pyrrolidinecarboxamide] it was 162 to 164 °C; in that of `CN(C)CC1CCc2cc(NC(=O)c3ccc(-c4ccc(Cl)cc4)cc3Cl)ccc2C1` (stereo not shown) [Example 26, 3,4′-Dichloro-N-[6-[(N,N-dimethylamino)methyl]-5,6,7,8-tetrahydro-2-naphthalenyl][1,1′-biphenyl]-4-carboxamide], 177 to 179 °C.
Compound `CN(C)CC1CCc2cc(NS(=O)(=O)c3ccc(-c4ccccc4)cc3)ccc2C1.Cl` (stereo not shown) came in with a melting point of 168 to 170 °C.
In the case of `CC1=C(CN2CCCC2)CCc2cc(NC(=O)c3ccc(-c4ccc(C)cc4)nc3)ccc21` [Example 228, 6-(4-Methylphenyl)-N-[5-methyl-6-(1-pyrrolidinylmethyl)-7,8-dihydro-2-naphthalenyl]nicotinamide] it was 175 to 176 °C.
In turn, `O=C(Nc1ccc2c(c1)CCC(CN1CCCC1)=C2)c1ccc(-c2ccc(F)cc2)nc1` [Example 149, 6-(4-Fluorophenyl)-N-[6-[(1-pyrrolidinyl)methyl]-7,8-dihydro-2-naphthalenyl]nicotinamide] displayed a melting point of 225 to 227 °C.
Take `CN(C)CCNC(=O)Cc1ccc(NC(=O)c2ccc(OCc3ccc(-c4ccccc4)cc3)cc2)cc1` [Example 191, 4-([1,1′-Biphenyl]-4-ylmethoxy)-N-[4-[2-[[2-(dimethylamino)ethyl]amino]-2-oxoethyl]phenyl]benzamide]: the melting point was in the range of 204 to 208 °C.
For the compound `CN(C)CC1=Cc2ncc(NC(=O)c3ccc(-c4ccccc4)cc3)cc2CC1` [Example 133, N-[7-[(Dimethylamino)methyl]-5,6-dihydro-3-quinolinyl][1,1′-biphenyl]-4-carboxamide], the melting point fell in the range of 202 to 203 °C.
`Cc1cc(C(=O)Nc2ccc3c(c2)CCC(CN(C)C)C3)ccc1-c1ccc(Cl)cc1` (stereo not shown) [Example 28, 4′-Chloro-N-[6-[(N,N-dimethylamino)methyl]-5,6,7,8-tetrahydro-2-naphthalenyl]-2-methyl[1,1′-biphenyl]-4-carboxamide]: the melting point lay in the range of 193 to 195 °C.
The compound `CN(C)CC1CCc2cc(NC(=O)c3ccc(OCc4ccccc4)cc3)ccc2C1` (stereo not shown) [Example 5, 4-(Benzyloxy)-N-[2-(N,N-dimethylamino)methyl-6-tetralinyl]benzamide] showed a melting point of 135 to 136 °C.
The compound `CN(C)CC1CCc2cc(NC(=O)c3ccc(-c4ccc(Cl)c(Cl)c4)cc3)ccc2C1` (stereo not shown) [Example 16, 3′,4′-Dichloro-N-[6-[(N,N-dimethylamino)methyl]-5,6,7,8-tetrahydro-2-naphthalenyl][1,1′-biphenyl]-4-carboxamide] registered a melting point of 143 to 145 °C.
In turn, `CN(C)CC1CCc2cc(NC(=O)N3CCC(c4ccc(F)cc4)CC3)ccc2C1O` (stereo not shown) [Example 203, N-[6-[(Dimethylamino)methyl]-5-hydroxy-5,6,7,8-tetrahydro-2-naphthalenyl]-4-(4-fluorophenyl)-1-piperidinecarboxamide] displayed a melting point of 160 to 163 °C.
Compound `CN(C)CC1CCc2cc(NC(=O)c3ccc(-c4cccs4)cc3)ccc2C1` (stereo not shown) [Example 34, N-[6-[(N,N-Dimethylamino)methyl]-5,6,7,8-tetrahydro-2-naphthalenyl]-4-(2-thienyl) benzamide] had a melting point of 165 to 166 °C.
`CN(C)CC1=Cc2ccc(NC(=O)CNC(=O)c3ccc(Cl)cc3)cc2CC1` [Example 126, 4-Chloro-N-[2-[[6-[(dimethylamino)methyl]-7,8-dihydro-2-naphthalenyl]amino]-2-oxoethyl]benzamide] registered a melting point of 168 to 171 °C.
The compound `CC1=C(CN2CCCC2)CCc2cc(NC(=O)N3CCC(c4ccc(C)cc4)CC3)ccc21` [Example 238, 4-(4-Methylphenyl)-N-[5-methyl-6-(1-pyrrolidinylmethyl)-7,8-dihydro-2-naphthalenyl]-1-piperidinecarboxamide] returned a melting point of 159 to 160 °C.
`CN(C)CCNC(=O)Cc1ccc(NC(=O)Cc2ccccc2Cc2ccccc2)cc1` [Example 186, 2-(2-Benzylphenyl)-N-[4-[2-[[2-(dimethylamino)ethyl]amino]-2-oxoethyl]phenyl]acetamide] gave a melting point of 115 to 117 °C.
Take `CC(C)CC1=C(CN(C)C)CCc2cc(NC(=O)c3ccc(-c4ccc(Cl)cc4)cc3)ccc21` [Example 113, 4′-Chloro-N-(6-[(dimethylamino)methyl)-5-isobutyl-7,8-dihydro-2-naphthalenyl][1,1′-biphenyl]-4-carboxamide]: the melting point lay within 159 to 162 °C.
Under `CN(C)CC1CCc2cc(NC(=O)c3cc4ccccc4[nH]3)ccc2C1` (stereo not shown) [Example 122] stands 190 to 192 °C; under `CN(C)CC1CCc2cc(NC(=O)c3ccc(-c4ccc(C#N)cc4)cc3)ccc2C1` (stereo not shown) [Example 207, 4′-Cyano-N-[6-[(dimethylamino)methyl]-5,6,7,8-tetrahydro-2-naphthalenyl][1,1′-biphenyl]-4-carboxamide], 183 to 185 °C; under `O=C(NCCN1CCCC1)c1ccc(NC(=O)c2ccc(-c3ccccc3)cc2)cc1` [compound 23], 241 to 245 °C (dec.).

Source of the values: patent publication US7115750B1, “Melanin concentrating hormone antagonist” (Takeda Pharmaceutical Company Limited, priority 1999, dated 2006).
